{"source": "paper PMC5974752", "about": "“Bax/Tubulin/Epithelial-Mesenchymal Pathways Determine the Efficacy of Silybin Analog HM015k in Colorectal Cancer Cell Growth and Metastasis” (Frontiers in Pharmacology, 2018)", "origin": "cited, not measured here", "key": {"[1]": {"system": "SW480 cells with a mutant APC gene", "set-up": "method as in Kaur et al., 2010", "conditions": "50–200 μM; ref Kaur et al., 2010; cited from earlier work"}, "[2]": {"system": "CRC lines HCT116 and HT29", "set-up": "method as in Agarwal et al., 2003", "conditions": "ref Agarwal et al., 2003, cited from earlier work"}, "[3]": {"system": "transgenic mice with prostate adenocarcinomas", "set-up": "method as in Singh et al., 2008", "conditions": "0.5 and 1% (w/w); ref Singh et al., 2008; cited from earlier work"}, "[4]": {"system": "xenograft model in mice using SW480 cells", "set-up": "method as in Kaur et al., 2010", "conditions": "i.p. 100 or 200 mg/kg; ref Kaur et al., 2010; cited from earlier work"}, "[5]": {"system": "ARCaP(M) cells", "set-up": "method as in Wu et al., 2009", "conditions": "100 and 200 μM; ref Wu et al., 2009; cited from earlier work"}, "[6]": {"system": "PC3 and PC3MM2 cells", "set-up": "method as in Deep et al., 2011", "conditions": "90 μM; ref Deep et al., 2011; cited from earlier work"}, "[7]": {"system": "EMT—driven resistance", "set-up": "method as in Cufí et al., 2013", "conditions": "100 mg/kg; ref Cufí et al., 2013; cited from earlier work"}, "[8]": {"system": "PC3 and PC3MM2 cells", "set-up": "method as in Deep et al., 2011", "conditions": "30 and 90 μM; ref Deep et al., 2011; cited from earlier work"}, "[9]": {"system": "Wnt/β-catenin signaling in PC-3, DU-145, MDAMB-231 and T-47D cells", "set-up": "method as in Lu W. et al., 2012", "conditions": "100–200 μM; ref Lu W. et al., 2012; cited from earlier work"}, "[10]": {"set-up": "method as in Dixit et al., 2007; Zhu et al., 2013; Amawi et al., 2017b", "conditions": "ref Dixit et al., 2007; Zhu et al., 2013; Amawi et al., 2017b; cited from earlier work"}}, "data": [{"smiles": "COc1cc(C2Oc3cc([C@H]4Oc5cc(O)cc(O)c5C(=O)[C@@H]4O)ccc3OC2CO)ccc1O", "note": "(some centres unmarked) [silybin]", "values": [{"measurement": "nuclear β-catenin, c-Myc expression and apoptosis", "setting": "[1]", "result": "significantly inhibited the expression of nuclear β-catenin, c-Myc and induced apoptosis"}, {"measurement": "concentration that inhibits proliferation", "setting": "[2]; HCT116 and HT29", "result": "50 to 200", "unit": "µM"}, {"measurement": "cell cycle arrest and apoptosis", "setting": "[2]", "result": "induces both G1 and G2 cell cycle arrest and induces apoptosis"}, {"measurement": "E-cadherin, vimentin and MMP-2 expression", "setting": "[3]", "result": "significantly upregulate E-cadherin and decrease the expression of the EMT markers, vimentin and MMP-2"}, {"measurement": "effects in SW480 xenograft", "setting": "[4]", "result": "produced similar effects"}, {"measurement": "invasiveness", "setting": "[5]", "result": "inhibits the invasiveness"}, {"measurement": "E-cadherin and nuclear β-catenin levels", "setting": "[6]", "result": "significant upregulation in E-cadherin and downregulation in nuclear β-catenin levels"}, {"measurement": "EMT-driven resistance", "setting": "[7]", "result": "significantly decreased"}, {"measurement": "migratory and invasive capacities", "setting": "[8]", "result": "inhibits the migratory and invasive capacities"}, {"measurement": "Wnt/β-catenin signaling", "setting": "[9]", "result": "significantly decreased"}, {"measurement": "bioavailability", "setting": "[10]", "result": "poor bioavailability"}]}]}
